Data taken from PMC12281424, “A Rac-specific competitive inhibitor of guanine nucleotide binding reduces metastasis in triple-negative breast cancer” (Cell Reports Medicine, 2025).

How the values were obtained:
[1] = molecular target: RAC1 (Homo sapiens, UniProt P63000); test: Nucleotide exchange kinetics (mant-GTP/mant-GDP fluorescence); format: biochemical; set-up: Full-length RAC1 carrying a 6xHis tag in C-terminus was purified as previously described; 6xHis (C); made in house
Procedure: (§1) Figure 2 Identification of a new RAC1 inhibitor (A) Effect of A41 and NSC23766 on ruffle formation (white arrows) induced by EGF (10 ng/mL) in NIH 3T3 cells in serum-free culture medium (CTL). Inhibitors were added at indicated concentration 1 h prior to EGF stimulation. To assess cytoskeleton organization, cells were incubated with Alexa Fluor 488 phalloidin to visualize F-actin. Results shown are representative of 3 independent experiments. Corresponding concentration-response curves have been established by counting the percentages of cells with ruffles (scale bars: 10 μm). (B) Immunoblot analysis and associated quantification of RAC-GTP level and total RAC expression in NIH 3T3 cells stimulated by EGF (10 ng/mL, 5 min) and pre-incubated or not (−) with NSC23766, A41, or A415 at 10^−5 M for 1 h (∗∗∗p < 0.001 vs. controls without EGF stimulation, ^###p < 0.001 vs. controls with EGF stimulation) (N > 3). (C) Representative surface plasmon resonance (SPR) sensograms of binding of immobilized RAC1 with increasing concentrations of A41 with or without EDTA (20 mM) (N > 3). (D) Representative in vitro nucleotide exchange catalyzed by the DH-PH of TIAM (10 nM) measured by the binding of fluorescent mant-GTP (1 μM) to RAC1 (0.5 μM, preloaded with GDP) in the presence of indicated concentrations of A41 (out of N = 6). Dotted lines correspond to the experimental curves, and continuous lines represent the fit of experimental points. (E) Kobs and Kmax were determined in each condition (N = 6). (F) Predicted binding modes of A4 to the NSC23766-binding site (left) or the GDP-binding pocket of RAC1 (right). In the NSC23766-binding site of RAC1, the compound A4 (carbon atoms in blue) makes 2 hydrogen bonds (green dotted line) with Ser71 (S71) and 10 hydrophobic interactions (pink dotted line) with Ala3 (A3), Lys5 (K5), Val36 (V36), Trp56 (W56), Tyr64 (Y64), and Leu67 (L67) leading to a docking score of −6.03 kcal/mol. The GDP molecule is shown with fine line. The P loop is shown in yellow, the switch 1 in orange, and the switch 2 in green. In the GDP-binding pocket, A4 establishes 6 hydrogen bonds with Gly15 (G15), Lys16 (K16), Cys18 (C18), and Lys116 (K116), 1 carbon hydrogen bond with Lys116, and 9 hydrophobic interactions with Cys18, Ile33 (I33), Lys116, Leu119 (L119), and Leu160 (L160), resulting in a docking score of −10.32 kcal/mol.
Figure 3 Inhibitory mechanism of A41 (A–D) RAC1 activity was monitored by the change in mant-GTP/GDP fluorescence induced by its binding to or releasing from RAC1 (A–D). GDP-bound RAC1 (0.5 μM) was incubated with TRIO (10 nM) and the indicated concentrations of mant-GTP without and with A41 (5 μM) (A–C). Mant-GDP-bound RAC1 (0.5 μM) was incubated with TRIO (10 nM) and GTP (1 μM) without and with A41 (5 μM) (D). AU: arbitrary fluorescence units. All experiments were done in triplicate. Kmax and Kmin are expressed as mean ± SEM. ∗∗p < 0.01 and ∗∗∗p < 0.001 vs. TRIO. (E) Deconvoluted mass spectra generated from crude mass spectrum analyses to evaluate RAC1 photolabeling with [N3]-A41 by LC-HRMS on native protein. (F) Representative mass spectra of both labeled and unlabeled […] peptide during LC-HRMS analysis of RAC1 photolabeling with [N3]-A41 after trypsin digestion. (G) Predicted binding mode of A41 to the GDP-binding pocket of RAC1. Compound A41 (orange) makes 4 hydrogen bonds (green dotted line) with Lys16 (K16), Cys18 (C18), and Lys116 (K116), 2 carbon hydrogen bond (light green dotted line) with Val14 (V14) and Lys116 (K116), and 7 hydrophobic interactions (pink dotted line) with Cys18 (C18), Phe28 (F28), Lys116 (K116), Ala159 (A159), and Leu160 (L160). The P loop is shown in yellow, the switch 1 in orange, and the switch 2 in green.
Full-length RAC1 carrying a 6xHis tag in C-terminus was purified as previously described.[64] Full-length RAC2, RHOG, RHOA and CDC42 were purified as previously described.[64]^,[65] […]

[2] = molecular target: T1, RAC1 (Mus musculus, UniProt P63001); test: RAC-GTP pull-down assay, EGF-stimulated NIH/3T3 fibroblasts; format: cell-based; conditions: 10^-5 M; for RAC1 activation (active GTP-bound RAC1): 1 h, EGF 10 ng/mL 5 min
T1 construct: endogenous in cells; host or cells: NIH/3T3 fibroblasts (ATCC CRL-1658), EGF-stimulated
Procedure: as §1, with “In the GDP-binding pocket, A4 establishes 6 hydrogen bonds with Gly15 (G15), Lys16 (K16), Cys18 (C18), and Lys116 (K116), 1 carbon hydrogen bond with Lys116, and 9 hydrophobic interactions with Cys18, Ile33 (I33), Lys116, Leu119 (L119), and Leu160 (L160), resulting in a docking score of −10.32 kcal/mol.” left out
Pull-down assay using GST-PBD fusion proteins were performed on NIH-3T3 lysates to assess RAC1 activity as previously described.[63] The precipitated active RAC was subjected to SDS-PAGE and detected by immunoblot with anti-RAC1 antibody (BD biosciences) (dilution 1/1000). […]
(§2) screening molecules (10^-5 M) on NIH/3T3 cell adhesion (xCELLingence Real-time cellanalysis, Agilent), migration (CYTOO Mobility plates) and proliferation (xCELLingence Real-time cell analysis, Agilent) .The level of RAC activation is determinedby the detection of RAC-GTP (pull-down assay) in NIH/3T3 cell treated with EGF (10 ng/mL) and the differentmolecules and normalize to the level of RAC activity measuredin the presenceof the reference RAC inhibitor EHT1864.

[3] = test system: RAC1-GTP levels in MDA-MB-468 Luc cells; test: RAC-GTP immunofluorescence; format: cell-based; conditions: 10^-5 M, 1 h
Procedure: Luciferase (Luc, green) was used to detect the cells. […] (C) Quantification of colony number of indicated cancer cell lines in the presence of A41 (10 μM) expressed as the percentage of control in the absence of A41. […] (D) Immunoblot analysis and corresponding quantification of AKT and P44/42 expression and phosphorylation (pAKT, p44/42) in MDA-MB-468 Luc cells in the absence (−) and presence of NSC23766 or A41 (1 h at 10^−5 M). […] (E) 3D invasion assay of MDA-MB-468 Luc and cancer-associated fibroblasts (CAFs) and corresponding quantification (scale bars: 200 μm).
After indicated treatments, cells were fixed with 4% paraformaldehyde and permeabilized in PBS 0.5% Triton X-100. To assess RAC1 activity, cells were then incubated with RAC-GTP antibody (26903, NewEast Biosciences, King of Prussia, Pa) (dilution 1/500) overnight at room temperature, followed by secondary Alexa 568-labeled anti-mouse antibody (dilution 1/1000). Cancer cells were detected with firefly luciferase antibody (ab21176, Abcam) (dilution 1/500) overnight at room temperature, followed by secondary Alexa 488-labeled anti-rabbit antibody (dilution 1/1000). To assess cytoskeleton organization, cells were incubated with Alexa Fluor 488 phalloidin (A12379, Invitrogen) to visualize F-actin. After staining, cells were mounted in Prolong gold antifade reagent with DAPI and images were captured by a fluorescence microscope.

[4] = test system: NIH/3T3 cell proliferation; test: Cell proliferation (xCELLigence); format: cell-based; conditions: 10^-5 M
Text: (§3) Supplementary Fig. 3: Example of one pharmacophore model used for virtual screening. (a) The pharmacophore model shown was created based on RAC1 (grey) and NSC23766 (orange) interaction. The pharmacophore model is formed by two hydrogenbond acceptor(HBA)features,one orientedtowardsthe hydroxylgroup of Ser71 (S71) and the other towards the amine group of Gln74 (Q74), one hydrogen bond donor (HBD) feature pointed to the oxygenatom of Leu70 (L70) and two hydrophobic features (HY) located on certain carbon atoms of NSC23766 and facing residues Val36 (V36), Ala59 (A59), Tyr64 (Y64) and Leu67 (L67). The spheres correspond to locationconstraint. The pharmacophoremodel was completedby thirteen exclusion spheres centered on the main residues of RAC1 defining the binding site. The P loop, the switch 1 and the switch 2 are shown in yellow, orange and green respectively. (b) Impact of different screening molecules (10^-5 M) on NIH/3T3 cell adhesion (xCELLingence Real-time cellanalysis, Agilent), migration (CYTOO Mobility plates) and proliferation (xCELLingence Real-time cell analysis, Agilent) .The level of RAC activation is determinedby the detection of RAC-GTP (pull-down assay) in NIH/3T3 cell treated with EGF (10 ng/mL) and the differentmolecules and normalize to the level of RAC activity measuredin the presenceof the reference RAC inhibitor EHT1864.

[5] = test system: NIH/3T3 cell migration; test: 1D cell migration (CYTOO plates); format: cell-based; conditions: 10^-5 M
Procedure: NIH3T3cells (1000/well) were seeded in a 96 well plate with […] fibronectin stripes (CytooPlates Motility, CYTOO) in medium with 1% SVF and allowed to spread for 4 h before capturing time-lapse images for 24 h (image/10 min) on a Widefield Leica DMI 6000B drove with Metamorph software. Cells speed was measured with ImageJ software.
as §3, with “The pharmacophoremodel was completedby thirteen exclusion spheres centered on the main residues of RAC1 defining the binding site. The P loop, the switch 1 and the switch 2 are shown in yellow, orange and green respectively.” left out
(§4) Supplementary Fig. 4: A41 inhibits RAC-dependent cell functions. (a) Representative records of single NIH/3T3 cell migration on micropatterned fibronectin lines (CYTOO Mobility plates) in the absence (Control)and presenceA41 at 10^-5 M (left panel) and corresponding quantification of migration speed (right panel) (scale bar: 20µm). […] (b) Typical curves showing the cell index representing the adhesion of NIH/3T3 fibroblast (xCELLingence Real-time cell analysis, Agilent) under control condition (Control) and pre-treated with 10 µM A41 or NSC23766 (left panel) and corresponding quantification of cell adhesion speed (right panel). […]

[6] = test system: NIH/3T3 cell adhesion; test: Cell adhesion assay (xCELLigence impedance); format: cell-based; conditions: 10^-5 M
Procedure: NIH3T3cells (10000/well) were seeded in a 96 well plate microtiter xCELLigence assay plate (E-Plate) (ACEA Biosciences Inc.) and placed on the Real-time xCELLigence Cell Analyzer (Roche Applied Science) platform at 37°C to measure the “cell index” every 5 min for a period of 6 h. The cell index unit is defined as (Rn − Rb)/15. Rn is the cell electrode impedance of the well when it contains cells. Rb is the background impedance of the well with the media alone.
as §2, with “Supplementary Fig. 3: Example of one pharmacophore model used for virtual screening. (a) The pharmacophore model shown was created based on RAC1 (grey) and NSC23766 (orange) interaction. […] (b) Impact of different screening” for “screening”
as §4

[7] = test system: RAC1-dependent membrane ruffle formation in NIH 3T3 cells; test: EGF-induced membrane ruffle formation; format: cell-based
Procedure: Figure 2 Identification of a new RAC1 inhibitor (A) Effect of A41 and NSC23766 on ruffle formation (white arrows) induced by EGF (10 ng/mL) in NIH 3T3 cells in serum-free culture medium (CTL). Inhibitors were added at indicated concentration 1 h prior to EGF stimulation. To assess cytoskeleton organization, cells were incubated with Alexa Fluor 488 phalloidin to visualize F-actin. Results shown are representative of 3 independent experiments. Corresponding concentration-response curves have been established by counting the percentages of cells with ruffles (scale bars: 10 μm). (B) Immunoblot analysis and associated quantification of RAC-GTP level and total RAC expression in NIH 3T3 cells stimulated by EGF (10 ng/mL, 5 min) and pre-incubated or not (−) with NSC23766, A41, or A415 at 10^−5 M for 1 h (∗∗∗p < 0.001 vs. controls without EGF stimulation, ^###p < 0.001 vs. controls with EGF stimulation) (N > 3). […] (D) Representative in vitro nucleotide exchange catalyzed by the DH-PH of TIAM (10 nM) measured by the binding of fluorescent mant-GTP (1 μM) to RAC1 (0.5 μM, preloaded with GDP) in the presence of indicated concentrations of A41 (out of N = 6). […] (E) Kobs and Kmax were determined in each condition (N = 6). […]
After indicated treatments, cells were fixed with 4% paraformaldehyde and permeabilized in PBS 0.5% Triton X-100. […] Cancer cells were detected with firefly luciferase antibody (ab21176, Abcam) (dilution 1/500) overnight at room temperature, followed by secondary Alexa 488-labeled anti-rabbit antibody (dilution 1/1000). […] After staining, cells were mounted in Prolong gold antifade reagent with DAPI and images were captured by a fluorescence microscope. […]
Supp. […] For each molecule, druglikeness has been assessed according to Lipinski’s rules: molecular weight (MW)<500; high lipophilicity (LogP<5); less than 5 hydrogen bond donors (HBD); less than 10 hydrogen bond acceptors (HBA). The log P was calculated by using OSIRIS – Data Warrior software. […] IC50 was determined experimentally from the inhibition

| Compound | Inhibition of RAC1 activity (nucleotide exchange assay) [1] [%] | Rac-GTP level (relative to EHT1864) ([2]; EGF 10 ng/mL) | effect on RAC1 activity [3] | Proliferation (% ctrl) [4] [%] | Migration (% inhib) [5] [%] | Adhesion (% inhib) [6] [%] | inhibitory effect on RAC1 [7] | RAC1 activation (active GTP-bound RAC1) [2] |
| --- | --- | --- | --- | --- | --- | --- | --- | --- |
| COc1ccc(OC)c(NS(=O)(=O)c2ccc(NC(=O)CCSc3ccc(N=[N+]=[N-])cc3)cc2)c1 [[N3]-A41] | 46 |  |  |  |  |  |  |  |
| O=c1cc(CN2CCOCC2)occ1OCCCCCSc1ccnc2cc(C(F)(F)F)ccc12 [EHT1864] |  | 1.00 | no | 101 | 35 | 32 |  |  |
| COc1ccc(OC)c(NC(=O)c2ccc(NC(=O)CCSc3ccc(C)cc3)cc2)c1 [Compound A415] |  |  |  |  |  |  | loss of the inhibitory effect on RAC1 | no significant effect |
| CCC(=O)Nc1ccc(S(=O)(=O)Nc2cc(OC)ccc2OC)cc1 [Compound A420] |  |  |  |  |  |  | loss of the inhibitory effect on RAC1 |  |
| CCN(CC)CCCC(C)Nc1nc(C)cc(Nc2ccc3nc(C)cc(N)c3c2)n1 (centres unmarked) [NSC23766] |  |  | little effect | 131 | 20 | 34 |  | no significant effect |
